This is an account of results in ChEMBL document CHEMBL1926563, “Synthesis, antimicrobial, antimycobacterial and structure-activity relationship of substituted pyrazolo-, isoxazolo-, pyrimido- and mercaptopyrimidocyclohepta[b]indoles” (2012).

For experiment [1], the system named is Mycobacterium tuberculosis. Briefly: Antimycobacterial activity against Mycobacterium tuberculosis H37Rv at 1.5 to 50 ug/ml after 7 days by resazurin microtiter plate assay. The experiment is classed as functional, organism-based.
The subject of experiment [2] is Staphylococcus aureus. Briefly: Antibacterial activity against Staphylococcus aureus NCIM 5021 assessed as zone of inhibition at 100 ug/disc after 24 hrs by disk diffusion method. As to conditions: NCIM 5021, 24 h, read-out: DIZ. The experiment is classed as functional.
The subject of experiment [3] is Staphylococcus aureus. Briefly: Antibacterial activity against Staphylococcus aureus NCIM 5021 assessed as zone of inhibition at 200 ug/disc after 24 hrs by disk diffusion method. As to conditions: NCIM 5021, 24 h, read-out: DIZ. Type of experiment: functional.
Experiment [4] relates to Bacillus subtilis. Briefly: Antibacterial activity against Bacillus subtilis NCIM 2063 assessed as zone of inhibition at 100 ug/disc after 24 hrs by disk diffusion method. Conditions: NCIM 2063, 24 h, read-out: DIZ. The experiment is classed as functional.
Experiment [5] relates to Bacillus subtilis. The experiment in a line: Antibacterial activity against Bacillus subtilis NCIM 2063 assessed as zone of inhibition at 200 ug/disc after 24 hrs by disk diffusion method. The experiment is classed as functional. As to conditions: NCIM 2063, 24 h, read-out: DIZ.
Experiment [6] relates to Klebsiella pneumoniae. The experiment in a line: Antibacterial activity against Klebsiella pneumoniae NCIM 2957 assessed as zone of inhibition at 100 ug/disc after 24 hrs by disk diffusion method. The experiment is classed as functional. As to conditions: NCIM 2957, 24 h, read-out: DIZ.
For experiment [7], the system named is Klebsiella pneumoniae. The experiment in a line: Antibacterial activity against Klebsiella pneumoniae NCIM 2957 assessed as zone of inhibition at 200 ug/disc after 24 hrs by disk diffusion method. As to conditions: NCIM 2957, 24 h, read-out: DIZ. The experiment is classed as functional.
Experiment [8] relates to Proteus vulgaris. The experiment in a line: Antibacterial activity against Proteus vulgaris NCIM 2027 assessed as zone of inhibition at 100 ug/disc after 24 hrs by disk diffusion method. As to conditions: NCIM 2027, 24 h, read-out: DIZ. Type of experiment: functional.
Experiment [9] has as its system Proteus vulgaris. Briefly: Antibacterial activity against Proteus vulgaris NCIM 2027 assessed as zone of inhibition at 200 ug/disc after 24 hrs by disk diffusion method. Type of experiment: functional. As to conditions: NCIM 2027, 24 h, read-out: DIZ.
Experiment [10] relates to Fusarium solani. The experiment in a line: Antifungal activity against Fusarium solani NCIM 1330 assessed as zone of inhibition at 100 ug/disc after 48 hrs by disk diffusion method. Type of experiment: functional. As to conditions: NCIM 1330, 48 h, read-out: DIZ.
Experiment [11] deals with Fusarium solani. Briefly: Antifungal activity against Fusarium solani NCIM 1330 assessed as zone of inhibition at 200 ug/disc after 48 hrs by disk diffusion method. Type of experiment: functional. As to conditions: NCIM 1330, 48 h, read-out: DIZ.
The test system of experiment [12] is Curvularia lunata. Briefly: Antifungal activity against Curvularia lunata NCIM 716 assessed as zone of inhibition at 100 ug/disc after 48 hrs by disk diffusion method. The experiment is classed as functional. Conditions: NCIM 716, 48 h, read-out: DIZ.
In experiment [13] the test system is Curvularia lunata. Briefly: Antifungal activity against Curvularia lunata NCIM 716 assessed as zone of inhibition at 200 ug/disc after 48 hrs by disk diffusion method. Conditions: NCIM 716, 48 h, read-out: DIZ. The experiment is classed as functional.
Experiment [14] has as its system Aspergillus niger. The experiment in a line: Antifungal activity against Aspergillus niger NCIM 596 assessed as zone of inhibition at 100 ug/disc after 48 hrs by disk diffusion method. The experiment is classed as functional. As to conditions: NCIM 596, 48 h, read-out: DIZ.
In experiment [15] the test system is Aspergillus niger. Briefly: Antifungal activity against Aspergillus niger NCIM 596 assessed as zone of inhibition at 200 ug/disc after 48 hrs by disk diffusion method. The experiment is classed as functional. Conditions: NCIM 596, 48 h, read-out: DIZ.
Experiment [16] concerns Fusarium solani. Briefly: Antifungal activity against Fusarium solani NCIM 1330 after 48 hrs by disk diffusion method. The experiment is classed as functional. Conditions: NCIM 1330, 48 h.
Experiment [17] has as its system Curvularia lunata. Briefly: Antifungal activity against Curvularia lunata NCIM 716 after 48 hrs by disk diffusion method. As to conditions: NCIM 716, 48 h. Type of experiment: functional.
For experiment [18], the system named is Aspergillus niger. The experiment in a line: Antifungal activity against Aspergillus niger NCIM 596 after 48 hrs by disk diffusion method. The experiment is classed as functional. As to conditions: NCIM 596, 48 h.

Values after ≈ are worked out from the molar mass of the structure shown. Active and inactive are the calls of the source. The calls are words filed in the database; no cut-off is given here.

With `c1ccc(-n2ncc3c2-c2[nH]c4ccccc4c2CCC3)cc1`, the MIC result in experiment [1] was “inactive”. Also, the zone of inhibition at 100 µg/disc amounted to 25 mm in the experiment on Staphylococcus aureus [2]; 24 mm with Bacillus subtilis [4]; 21 mm in the experiment with Klebsiella pneumoniae [6]; 20 mm in the experiment with Proteus vulgaris [8]; 28 mm in the experiment with Fusarium solani [10]; 29 mm with Curvularia lunata [12]. In the experiment with Aspergillus niger [14], the zone of inhibition at 100 µg/disc was found to be 26 mm. For the same molecule, the zone of inhibition at 200 µg/disc with Staphylococcus aureus [3] is 27 mm; in the experiment on Bacillus subtilis [5], 26 mm; in the experiment on Klebsiella pneumoniae [7], 24 mm; in the experiment on Proteus vulgaris [9] it was 23 mm; in the experiment on Fusarium solani [11] it was 33 mm; in the experiment on Curvularia lunata [13], 31 mm. The zone of inhibition at 200 µg/disc in the experiment on Aspergillus niger [15] worked out at 30 mm.
`c1ccc2c3c([nH]c2c1)-c1n[nH]cc1CCC3`: the MIC result in experiment [1] was “inactive”. Also, the zone of inhibition at 100 µg/disc came to 27 mm with Staphylococcus aureus [2]; 26 mm with Bacillus subtilis [4]; 23 mm in the experiment with Klebsiella pneumoniae [6]; 22 mm in the experiment on Proteus vulgaris [8]; 30 mm in the experiment with Fusarium solani [10]; 31 mm in the experiment on Curvularia lunata [12]. Moreover, in the experiment on Aspergillus niger [14], the zone of inhibition at 100 µg/disc was 28 mm. Besides, the zone of inhibition at 200 µg/disc was 29 mm in the experiment on Staphylococcus aureus [3]; 28 mm with Bacillus subtilis [5]; 26 mm in the experiment with Klebsiella pneumoniae [7]; 25 mm in the experiment with Proteus vulgaris [9]; 35 mm in the experiment with Fusarium solani [11]; 33 mm in the experiment with Curvularia lunata [13]. The zone of inhibition at 200 µg/disc in the experiment with Aspergillus niger [15] came out at 31 mm.
For `Cc1ccc2[nH]c3c(c2c1)CCCc1cnn(-c2ccccc2)c1-3`, the MIC entry in experiment [1] is “inactive”. The zone of inhibition at 100 µg/disc in the experiment on Staphylococcus aureus [2] came to 27 mm; in the experiment with Bacillus subtilis [4] it was 29 mm; in the experiment with Klebsiella pneumoniae [6] it was 26 mm; with Proteus vulgaris [8] it was 21 mm; in the experiment on Fusarium solani [10], 30 mm; with Curvularia lunata [12] it was 31 mm. Besides, the zone of inhibition at 100 µg/disc in the experiment on Aspergillus niger [14] was determined as 29 mm. The zone of inhibition at 200 µg/disc in the experiment with Staphylococcus aureus [3] worked out at 30 mm; with Bacillus subtilis [5], 31 mm; in the experiment on Klebsiella pneumoniae [7], 28 mm; in the experiment with Proteus vulgaris [9], 23 mm; in the experiment on Fusarium solani [11] it was 34 mm; with Curvularia lunata [13] it was 31 mm. Further, the zone of inhibition at 200 µg/disc in the experiment with Aspergillus niger [15] came out at 30 mm.
With `CC(=O)N1CCN(c2ccc(OCC3COC(Cn4ccnc4)(c4ccc(Cl)cc4Cl)O3)cc2)CC1` (centres undefined) [KETOCONAZOLE], the MIC came to 12.5 mg/L (≈ 23.5 µM) against Fusarium solani [16], 6.25 mg/L (≈ 11.8 µM) against Curvularia lunata [17] and 6.25 mg/L (≈ 11.8 µM) against Aspergillus niger [18]. Also, the zone of inhibition at 100 µg/disc in the experiment on Fusarium solani [10] was 36 mm; in the experiment with Curvularia lunata [12] it was 40 mm; in the experiment on Aspergillus niger [14], 35 mm. In addition, the zone of inhibition at 200 µg/disc in the experiment on Fusarium solani [11] amounted to 40 mm; in the experiment on Curvularia lunata [13], 43 mm; in the experiment with Aspergillus niger [15] it was 38 mm.
As for `Sc1ncc2c(n1)-c1[nH]c3ccccc3c1CCC2`, in [1], the MIC entry is “inactive”. The zone of inhibition at 100 µg/disc in the experiment with Staphylococcus aureus [2] stood at 11 mm; with Bacillus subtilis [4], 12 mm; in the experiment with Klebsiella pneumoniae [6], 9 mm; in the experiment with Proteus vulgaris [8] it was 8 mm; in the experiment with Fusarium solani [10] it was 11 mm; with Curvularia lunata [12], 13 mm. Besides, the zone of inhibition at 100 µg/disc in the experiment with Aspergillus niger [14] turned out to be 10 mm. Further, the zone of inhibition at 200 µg/disc with Staphylococcus aureus [3] stood at 13 mm; in the experiment with Bacillus subtilis [5], 14 mm; with Klebsiella pneumoniae [7], 11 mm; with Proteus vulgaris [9], 10 mm; with Fusarium solani [11], 14 mm; in the experiment on Curvularia lunata [13] it was 16 mm. Further, the zone of inhibition at 200 µg/disc in the experiment with Aspergillus niger [15] was found to be 13 mm.
